Test results reported in US20230012560A1, “HEPATITIS B ANTIVIRAL AGENTS” (TAIGEN BIOTECHNOLOGY CO., LTD., priority 2019, published 2023).

test system: HBV (HepAD38 cells); test: Real-Time PCR Assay (extracellular HBV DNA from HepAD38 culture supernatants); type: cell-based; conditions: Hepatitis B virus, 120 h, compound treatment for 5 days without tetracycline, extracellular DNA in culture supernatant quantified by real-time PCR, read-out: EC50 (50% effective concentration)
Procedure: HepAD38 cells were seeded and cultured on 96-well plates. After incubation for 2 days, cells were fed with compound-containing media without tetracycline. After compound treatment for 5 days, culture supernatants were collected. Extracellular DNA was then extracted using LabTurbo DNA mini kit, and quantified by real-time PCR.
Real-time PCR was performed using an ABI QuantStudio 3 system in a 96-well optical plate format. The PCR mixture containing forward primer (5′-[…]-3′) (SEQ ID NO.1), reverse primer (5′-GGTGAGTGATTGGAGGTTG-3′) (SEQ ID NO.2) and Luna Universal qPCR Master Mix in a final volume of 24 μl was incubated at 95° C. for 10 min followed by 45 cycle of incubation at 95° C. for 10 s and 60° C. for 10 s. Regression analysis was performed using GraphPad Prism 5 to calculate the 50% effective concentration (EC50) values.

| SMILES | EC50 [nM] |
| --- | --- |
| CCNC(=O)C(=O)N1CCC(NS(=O)(=O)c2cn(C)c(C(=O)Nc3ccc(F)c(F)c3)c2F)C(C)C1 (centres unmarked) [Compound 83] | < 100 |
| CCNC(=O)C(=O)N1CCC(NS(=O)(=O)c2cn(C)c(C(=O)Nc3cc(F)c(F)c(F)c3)c2F)CC12CC2 (centres unmarked) [Compound 88] | < 100 |
| Cn1cc(S(=O)(=O)N[C@@H]2CCN(C(=O)C(=O)NCCO)C2)c(F)c1C(=O)Nc1cc(F)c(F)c(F)c1 [Compound 37] | < 100 |
| CCNC(=O)C(=O)N1CCC(NS(=O)(=O)c2cn(C)c(C(=O)Nc3cc(F)c(F)c(F)c3)c2F)CC1 [Compound 69] | < 100 |
| CCNC(=O)C(=O)N1CCC2(NS(=O)(=O)c3cn(C)c(C(=O)Nc4cc(F)c(F)c(F)c4)c3F)CC2C1 (centres unmarked) [Compound 85] | < 100 |
| CNS(=O)(=O)N1CCCC(C)(NS(=O)(=O)c2cn(C)c(C(=O)Nc3ccc(F)c(F)c3)c2F)C1 (centres unmarked) [Compound 20] | < 100 |
| CCNC(=O)C(=O)N1CC[C@@H](NS(=O)(=O)c2cn(C)c(C(=O)Nc3ccc(F)c(F)c3)c2F)[C@@H](F)C1 [Compound 96] | < 100 |
| CNS(=O)(=O)N1CCC(C)C(NS(=O)(=O)c2cn(C)c(C(=O)Nc3ccc(F)c(F)c3)c2F)C1 (centres unmarked) [Compound 19] | < 100 |
| CCNC(=O)C(=O)N1CCC(NS(=O)(=O)c2cn(C)c(C(=O)Nc3cc(F)c(F)c(F)c3)c2F)C(C)(C)C1 (centres unmarked) [Compound 86] | < 100 |
| CCNC(=O)C(=O)N1CCC(NS(=O)(=O)c2cn(C)c(C(=O)Nc3cccc(Cl)c3)c2F)CC1 [Compound 72] | < 100 |
| CN(C)S(=O)(=O)N1CC[C@@H](NS(=O)(=O)c2cn(C)c(C(=O)Nc3ccc(F)c(F)c3)c2F)C1 [Compound 9] | < 100 |
| CCn1cc(S(=O)(=O)N[C@@H]2CCCN(C(=O)C(N)=O)C2)c(F)c1C(=O)Nc1ccc(F)c(F)c1 [Compound 58] | < 100 |
| Cn1cc(S(=O)(=O)N[C@@H]2CCN(S(=O)(=O)c3ccc(F)cc3)C2)c(F)c1C(=O)Nc1ccc(F)c(F)c1 [Compound 13] | < 100 |
| CNC(=O)C(=O)N1CC[C@@H](NS(=O)(=O)c2c(F)c(C(=O)Nc3ccc(F)c(F)c3)n(C)c2C)C1 [Compound 44] | < 100 |
| CNS(=O)(=O)N1CCC[C@@H](NS(=O)(=O)c2cn(C)c(C(=O)Nc3cccc(C(F)(F)F)c3)c2F)C1 [Compound 21] | < 100 |
| CCNC(=O)C(=O)N1CCC(NS(=O)(=O)c2cn(C)c(C(=O)Nc3cc(F)c(F)c(F)c3)c2Cl)CC1 [Compound 76] | < 100 |
| CNC(=O)C(=O)N1CC[C@@H](NS(=O)(=O)c2cn(C)c(C(=O)Nc3ccc(F)c(Cl)c3)c2F)C1 [Compound 41] | < 100 |
| CCNC(=O)C(=O)N1CC(NS(=O)(=O)c2cn(C)c(C(=O)Nc3cc(F)c(F)c(F)c3)c2F)C1 [Compound 56] | < 100 |
| CCS(=O)(=O)N1CC2CC1CN2S(=O)(=O)c1cn(C)c(C(=O)Nc2ccc(F)c(F)c2)c1F (centres unmarked) [Compound 67] | 300 to 1000 |
| O=C(NC1CC1)C(=O)N1CCC(NS(=O)(=O)c2c(F)c(C(=O)Nc3cc(F)c(F)c(F)c3)n3c2CCC3)CC1 [Compound 77] | < 100 |
| CNC(=O)C(=O)N1CC[C@@H](NS(=O)(=O)c2cn(CC3CC3)c(C(=O)Nc3ccc(F)c(F)c3)c2F)C1 [Compound 50] | 100 to 300 |
| CC[C@@H](C)NC(=O)C(=O)N1CCC(NS(=O)(=O)c2cn(C)c(C(=O)Nc3cc(F)c(F)c(F)c3)c2F)CC1 [Compound 75] | < 100 |
| C#CCNC(=O)C(=O)N1CC[C@@H](NS(=O)(=O)c2cn(C)c(C(=O)Nc3ccc(F)c(F)c3)c2F)C1 [Compound 34] | < 100 |
| Cn1cc(S(=O)(=O)N[C@@H]2CCN(C(=O)C(=O)NC3CC3)C2)c(F)c1C(=O)Nc1ccc(F)c(F)c1 [Compound 33] | < 100 |
| Cn1cc(S(=O)(=O)N[C@@H]2CCN(S(=O)(=O)C3CCCC3)C2)c(F)c1C(=O)Nc1ccc(F)c(F)c1 [Compound 3] | 100 to 300 |
| CNC(=O)C(=O)N1CC[C@@H](NS(=O)(=O)c2cn(C3CCCC3)c(C(=O)Nc3ccc(F)c(F)c3)c2F)C1 [Compound 53] | 300 to 1000 |
